Data published in US20170235917A1, “SYSTEMS AND METHODS FOR MONITORING AND CONTROLLING A CARD[…] OF A SUBJECT” (THE GENERAL HOSPITAL CORPORATION, priority 2014, published 2017).
Read-outs that look alike come from different tables or passages of the source.

Key:
[1] = for 1/τ (inverse time constant of drug distribution and equilibration) / tD (delay): mean ± SD, five piglets
Protocol: Five neonatal Yorkshire Duroc piglets of 10+/−3 d of age weighting 2.4+/−0.6 kg were pre-anesthetized with ketamine (33 mg/kg) and atropine (0.05 mg/kg), intubated, and anesthetized using 1.5-3.0% isoflurane while mechanically ventilated. Core body temperature was kept at 38+/−0.5° C. BP, HR, arterial O2 saturation, end-tidal CO2, fraction of inspired O2, and pulmonary compliance were continuously monitored. HR beyond 250 bpm was captured using the PC-Vet wireless ECG system or direct counting. The animals received intravenous heparin (200 units/kg/h), physiologic saline (10 mL/kg/h), and 10 g/dL of dextrose-water to adjust serum glucose levels using Genie Plus syringe pumps validated for stability of infusion rate. Serum electrolytes, base excess (−6 to +6), pH (7.20-7.45), partial arterial O2 pressure (80-120 mmHg) and partial arterial CO2 pressure (35-45 mmHg), and arterial O2 saturation (90-100%) were maintained in the target ranges using sodium bicarbonate, potassium chloride, lactated Ringer's solution, and ventilatory changes, respectively. Both femoral veins and left femoral artery were cannulated for fluid and drug administration, and arterial BP measurements and blood sampling, respectively. […] The baseline measurements were recorded after a 15-min postsurgical stabilization period, followed by the escalation of dose, and a 15-min washout period after the discontinuation of the medication. […] To deduce the rate of change of the hemodynamic parameters, the data obtained were subdivided into baseline, low dose (0.25 mcg/kg/min), medium dose (0.5 and 0.75 mcg/kg/min) and high dose (1, 1.5 and 2 mcg/kg/min). BP and HR were collected in real time at a sampling rate of 0.2 Hz.

[2] = range across four pooled subject groups, cited from earlier work

With `CNC[C@H](O)c1ccc(O)c(O)c1` [epinephrine] the “1/τ (inverse time constant of drug distribution and equilibration)” value ([1]; X = H (HR)) was 4.1e−3 ± 4.5e−3, the “tD (delay)” value ([1]; X = R (TPR)) was 48.6 ± 17.6 s and the “1/τ (inverse time constant of drug distribution and equilibration)” value ([1]; X = δV (SV)) was 0.01 ± 0.02. The “tD (delay)” value ([1]; X = δV (SV)) was 29.1 ± 26.1 s, the “HR increase as share of its maximum response” value ([1]; after the first dose escalation (0.25 mcg/kg/min), averaged over five piglets) was 55% and the “HR at which the response starts to saturate” value ([1]; doses of 1-2 mcg/kg/min, one particular piglet) was “around 400 bpm”. The MAP response ([1]; from the low-dose range, averaged over five piglets (FIG. 10)) was “persistently increases”, the DBP ([2]; epinephrine 020 ng/kg/min) was 69-88 mmHg and the HR ([2]; epinephrine 020 ng/kg/min) was 64-69 bpm. For the same molecule, the MAP ([2]; epinephrine 020 ng/kg/min) was 83-110 mmHg, the SBP ([2]; epinephrine 020 ng/kg/min) was 112-153 mmHg and the SVI ([2]; epinephrine 020 ng/kg/min) was 54-65 ml/m^2. The DBP ([2]; epinephrine 040 ng/kg/min) was 66-83 mmHg, the HR ([2]; epinephrine 040 ng/kg/min) was 68-73 bpm and the MAP ([2]; epinephrine 040 ng/kg/min) was 82-106 mmHg. The SBP ([2]; epinephrine 040 ng/kg/min) was 114-153 mmHg, the SVI ([2]; epinephrine 040 ng/kg/min) was 55-68 ml/m^2 and the DBP ([2]; epinephrine 080 ng/kg/min) was 62-79 mmHg. For the same molecule, the HR ([2]; epinephrine 080 ng/kg/min) was 71-76 bpm, the MAP ([2]; epinephrine 080 ng/kg/min) was 83-105 mmHg and the SBP ([2]; epinephrine 080 ng/kg/min) was 124-158 mmHg. The SVI ([2]; epinephrine 080 ng/kg/min) was 58-71 ml/m^2, the DBP ([2]; epinephrine 120 ng/kg/min) was 61-79 mmHg and the HR ([2]; epinephrine 120 ng/kg/min) was 72-81 bpm. The MAP ([2]; epinephrine 120 ng/kg/min) was 84-109 mmHg, the SBP ([2]; epinephrine 120 ng/kg/min) was 132-168 mmHg and the SVI ([2]; epinephrine 120 ng/kg/min) was 59-74 ml/m^2. For the same molecule, the DBP ([2]; epinephrine 160 ng/kg/min) was 61-80 mmHg, the HR ([2]; epinephrine 160 ng/kg/min) was 75-79 bpm and the MAP ([2]; epinephrine 160 ng/kg/min) was 86-109 mmHg. The SBP ([2]; epinephrine 160 ng/kg/min) was 136-170 mmHg and the SVI ([2]; epinephrine 160 ng/kg/min) was 59-77 ml/m^2.
